According to patent US11944613B2, “CYP2J2 antagonists in the treatment of pain” (FRAUNHOFER-GESELLSCHAFT ZUR FÖRDERUNG DER ANGEWANDTEN …, priority 2014, dated 2024):
Where a name gives a salt, the structure may show the parent alone.

What was measured:
TRPV1 = TRPV1 (Mus musculus, UniProt Q704Y3); assay: Calcium imaging: TRPV1 sensitization, double capsaicin stimulation of DRG neurons; details: inhibitor 10 μM, preincubation 1 h; 9,10-EpOME 1 μM
Experimental: (a) DRG neurons were double-stimulated with capsaicin (200 nM, 15 s each) and incubated with either vehicle or 9,10-EpOME [1 μM] for two minutes prior to the second capsaicin stimulation. (b) Dose-dependent difference in ratio between the first and the second capsaicin response using the same protocol as described in (a). Data represent the mean ±SEM of the following number of neurons: 27 (control), 26 (250 nM 9,10-EpOME), 21 (500 nM 9,10-EpOME), 19 (750 nM 9,10-EpOME), 41 (1 μM 9,10-EpOME), 18 (2 μM 9,10-EpOME) or 28 (using 50 μM AITC for 20 s instead of capsaicin); *p<0.05, **p<0.01, ***p<0.001 student's t-test.
Data represent mean ±SEM of 15 (vehicle), 19 (EpOME) or 33 neurons (EpOME with H89 preincubation). […] Data represent mean ±SEM of 18 (vehicle), 23 (EpOME) or 39 neurons (EpOME with GFX preincubation); *p<0.05, **p<0.01 student's t-test; n.s. not significant.
Murine DRGs were dissected from spinal segments and directly transferred to ice cold HBSS with CaCl2 and MgCl2 (Invitrogen, Carsbad, CA, USA). Next, isolated DRGs were incubated with collagenase/dispase (500 U/ml Collagenase; 2.5 U/ml Dispase) in neurobasal medium containing L-glutamine [2 mM] penicillin (100 U/ml), streptomycin (100 μg/ml), B-27 and gentamicin (50 μg/ml) (all from Invitrogen, Carlsbad, CA, USA) at 37° C. for 75 min. […]

wild type BL/6N mice = assay: Thermal and mechanical thresholds after intraplantar or intrathecal 9,10-EpOME; type: in vivo, mouse
Experimental: FIG. 5: Intraplantar or intrathecal injection of 9,10-EpOME reduces pain thresholds and sensitizes capsaicin induced mechanical thresholds in wild type mice. (a) and (b) C57B1/6N mice received an intraplantar injection of 9,10-EpOME (10 μM) or vehicle (DMSO 0.3% (v/v) in saline). Thermal (a) or mechanical (b) thresholds were monitored for 5 h post injection. Data represents mean ±SEM from eight mice. (c) and (d) Wild type BL/6N mice were injected intrathecally with 9,10-EpOME (10 μM) or vehicle (DMSO 0.3% (v/v) in saline). Thermal (c) or mechanical (d) thresholds were monitored for 2 h (thermal) or 3 h (mechanical) post injection with 15 minute intervals for the first hour and 30 minute intervals for the second hour. Data represents mean ±SEM from eight mice. Die Abbildungen sind nicht mitgeliefert
For the determination of mechanical allodynia or thermal hypersensitivity, mice were kept in test cages on an elevated grid for at least 2 h to allow accommodation. Baseline measurements were performed using a Dynamic Plantar Aesthesiometer or a Hargreaves Apparatus (Ugo Basile, Comerio, VA, Italy) detecting withdrawal latency of the hind paws after mechanical stimulation. For the assessment of the mechanical thresholds, the steel rod was pushed against the mid-plantar hind paw with linear ascending force (0-5 g over 10 seconds, increasing 0.5 g/s) until a fast withdrawal response occurred. Slow movements of the paw were not counted. Paw withdrawal latencies (PWL) were determined in seconds (s) ±0.1 with a cut-off time of 20 s. The non-injected and injected paws were measured alternately in intervals of 5-10 min. For determination of thermal thresholds, mice were kept in test cages on a warmed glass plate (32° C.) for at least 2 h on the first day to allow accommodation. Then, the mid-plantar region of the paws was stimulated with a radiant heat device, consisting of a high intensity projector lamp, until withdrawal occurred. The non-injected and injected paws were measured alternately in intervals of 5-10 min. For all behavioral tests the investigator was blinded for treatment or genotype of the mice.
Treatments: For peripheral injections, 20 μl of 9,10-EpOME [5 μM] (Cayman, Ann Arbor, MI, USA) were injected subcutaneously (s.c.) in the mid-plantar area of the hind paw. […]
The inventors then tested the Galphas-coupled prostanoid receptors for their potential involvement in 9,10-EpOME dependent TRPV1 sensitization in calcium imaging experiments. […] To characterize in vivo effects of 9,10-EpOME, the inventors injected the lipid in hind paws of wild type BL/6N mice and measured the thermal (FIG. 5A) and mechanical thresholds (FIG. 5B) up to 5 h post injection. […] The inventors then injected 9,10-EpOME intrathecally and measured thermal and mechanical thresholds in short time intervals. […]

DRG neurons = assay: Calcium imaging: 9,10-EpOME-evoked calcium transients in DRG neurons; type: cell-based, mouse; details: 9,10-EpOME 10 μM, 30 s; antagonist pre-incubated two minutes; AMG 9810 1 μM, HC-030031 20 μM
Experimental: FIG. 2: Direct effects of 9,10-EpOME on DRG-neurons. (a) Application of 9,10-EpOME [10 μM, 30 s] causes calcium transients on DRG neurons which respond to high potassium (50 mM KCl, 30 s). A representative trace is shown. (b) Dose response relationship of 9,10-EpOME dependent calcium increases in DRG neurons related to the number of responding neurons Data represents the mean ±SEM of five measurements per concentration. (c) and (d) Calcium transients caused by 9,10-EpOME [10 μM, 30 s] can be disrupted using calcium-free medium containing EGTA (2 mM) washed in 2 minutes before and after 9,10-EpOME stimulation. Data represents the mean ±SEM of 24 (calcium-free) or 16 (control) neurons. (e) and (f) Calcium transients of 9,10-EpOME [10 μM, 30 s] can be blocked by a selective TRPV1 antagonist (AMG 9810, 1 μM) but not by a selective TRPA1 antagonist (HC-030031, 20 μM) washed in for two minutes prior to the second 9,10-EpOME stimulation. Data represents the mean ±SEM of 16 (control), 31 (AMG 9810) or 18 (HC-030031) neurons; **p<0.01, student's t-test.
Next, the inventors characterized 9,10-EpOME concerning its effects on DRG-neurons in calcium imaging experiments. […]

[1] = tested on: paclitaxel-induced CIPNP in mice
Experimental: (a) Levels of 9,10-EpOME shown in % of control determined by LC-MS/MS in sciatic nerves, DRGs and the dorsal horn of the spinal cord eight days after treatment with paclitaxel (6 mg·kg-1 i.p. and 1 mg·kg-1 terfenadine (grey) or vehicle (2% DMSO v/v, black)) Data represents mean ±SEM from the DRGs of five mice per group; *p<0.05, **p<0.01, student's t-test. (b) Remaining concentrations of all measured epoxylipids and dihydro-metabolites (9,10-EpOME, 12,13-EpOME, 9,10-DiHOME, 12,13-DiHOME and 14,15-EET) in sciatic nerve, DRGs, dorsal horn of the spinal cord and plasma after administration of terfenadine (1 mg·kg-1). (c) Mechanical thresholds of mice treated with paclitaxel for eight days (6 mg·kg-1 i.p.) that received an intravenous injection of terfenadine (1 or 2 mg kg-1) or vehicle (DMSO 2.5 or 5% (v/v)). The mechanical thresholds were monitored up to 5 h after injection of terfenadine or vehicle. Data represent mean ±SEM from 8-9 mice per group; #, *p<0.05, two-way ANOVA with Bonferroni post hoc test (*1 mg kg-1, #2 mg kg-1 terfenadine). […] Data represent mean ±SEM from 6-9 mice per group.
Paclitaxel was solved in Cremophor EL/Ethanol 1:1 and diluted in saline. The dose for intraperitoneal injection was set to 6 mg/kg as described previously.
For the determination of mechanical allodynia or thermal hypersensitivity, mice were kept in test cages on an elevated grid for at least 2 h to allow accommodation. Baseline measurements were performed using a Dynamic Plantar Aesthesiometer or a Hargreaves Apparatus (Ugo Basile, Comerio, VA, Italy) detecting withdrawal latency of the hind paws after mechanical stimulation. […] Slow movements of the paw were not counted. Paw withdrawal latencies (PWL) were determined in seconds (s) ±0.1 with a cut-off time of 20 s. The non-injected and injected paws were measured alternately in intervals of 5-10 min. […] The non-injected and injected paws were measured alternately in intervals of 5-10 min. […]

CYP2J6 = target: T1, CYP2J6 (Mus musculus, UniProt O54750); assay: LC-MS/MS epoxylipid levels in tissues of paclitaxel treated mice after terfenadine; type: in vivo
T1 construct: the inventors dissected the sciatic nerve, DRGs and the dorsal spinal cord and quantified epoxylipids in these tissues; from tissue; host or cells: sciatic nerve, DRGs, dorsal spinal cord and plasma of paclitaxel-treated C57BL/6N mice
T1 sequence (O54750 1-501): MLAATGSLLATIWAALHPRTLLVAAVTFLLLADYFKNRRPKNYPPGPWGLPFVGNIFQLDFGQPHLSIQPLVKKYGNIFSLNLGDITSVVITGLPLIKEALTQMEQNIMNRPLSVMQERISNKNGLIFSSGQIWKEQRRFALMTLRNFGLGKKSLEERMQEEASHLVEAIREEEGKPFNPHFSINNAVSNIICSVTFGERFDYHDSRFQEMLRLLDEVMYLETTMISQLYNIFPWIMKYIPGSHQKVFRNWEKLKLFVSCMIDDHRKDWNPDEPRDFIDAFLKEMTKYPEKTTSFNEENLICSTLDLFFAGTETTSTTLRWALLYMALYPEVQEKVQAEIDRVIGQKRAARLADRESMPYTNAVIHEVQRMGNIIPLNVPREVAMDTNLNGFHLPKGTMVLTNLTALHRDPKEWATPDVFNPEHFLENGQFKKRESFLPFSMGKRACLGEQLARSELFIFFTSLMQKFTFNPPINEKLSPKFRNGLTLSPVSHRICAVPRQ
Experimental: (b) Remaining concentrations of all measured epoxylipids and dihydro-metabolites (9,10-EpOME, 12,13-EpOME, 9,10-DiHOME, 12,13-DiHOME and 14,15-EET) in sciatic nerve, DRGs, dorsal horn of the spinal cord and plasma after administration of terfenadine (1 mg·kg-1).
Sample extraction and standards: Sample extraction was performed as described previously. Briefly, stock solutions with 2500 ng/ml of all analytes were prepared in methanol. Working standards were obtained by further dilution with a concentration range of 0.1-250 ng/ml for EETs, EpOMEs and DiHOMEs and HODEs Sample extraction was performed with liquid-liquid-extraction. Therefore tissue or cell culture medium was extracted twice with 600 μl ethyl acetate. The combined organic phases were removed at a temperature of 45° C. under a gentle stream of nitrogen. The residues were reconstituted with 50 μl of methanol/water/(50:50, v/v), centrifuged for 2 min at 10,000×g and then transferred to glass vials (Macherey-Nagel, Düren, Germany) prior to injection into the LC-MS/MS system.
Instrumentation for measuring epoxylipids and HODEs: The LC-MS/MS system consisted of an API 4000 triple quadrupole mass spectrometer (Applied Biosystems, Darmstadt, Germany), equipped with a Turbo-V-source operating in negative ESI mode, an Agilent 1100 binary HPLC pump and degasser (Agilent, Waldbronn, Germany) and an HTC Pal autosampler (Chromtech, Idstein, Germany) fitted with a 25 μL LEAP syringe (Axel Semrau GmbH, Sprockhövel, Germany). High purity nitrogen for the mass spectrometer was produced by a NGM 22-LC-MS nitrogen generator (cmc Instruments, Eschborn, Germany). […] Quantification was performed with Analyst Software V 1.4.2 (Applied Biosystems, Darmstadt, Germany) employing the internal standard method (isotope-dilution mass spectrometry). Ratios of analyte peak area and internal standard area (y-axis) were plotted against concentration (x-axis) and calibration curves were calculated by least square regression with 1/concentration2 weighting.

CYP3A4 [2] = target: T2, CYP3A4 (Homo sapiens, UniProt P08684); assay: in vitro
CYP2J2 = target: T3, CYP2J2 (Homo sapiens, UniProt P51589); assay: CYP2J2 P450-Glo luciferase assay (FDA Approved Drug Library screen); details: read-out: Average inhibition CYP2J2 (%)
T3 sequence (P51589 1-502): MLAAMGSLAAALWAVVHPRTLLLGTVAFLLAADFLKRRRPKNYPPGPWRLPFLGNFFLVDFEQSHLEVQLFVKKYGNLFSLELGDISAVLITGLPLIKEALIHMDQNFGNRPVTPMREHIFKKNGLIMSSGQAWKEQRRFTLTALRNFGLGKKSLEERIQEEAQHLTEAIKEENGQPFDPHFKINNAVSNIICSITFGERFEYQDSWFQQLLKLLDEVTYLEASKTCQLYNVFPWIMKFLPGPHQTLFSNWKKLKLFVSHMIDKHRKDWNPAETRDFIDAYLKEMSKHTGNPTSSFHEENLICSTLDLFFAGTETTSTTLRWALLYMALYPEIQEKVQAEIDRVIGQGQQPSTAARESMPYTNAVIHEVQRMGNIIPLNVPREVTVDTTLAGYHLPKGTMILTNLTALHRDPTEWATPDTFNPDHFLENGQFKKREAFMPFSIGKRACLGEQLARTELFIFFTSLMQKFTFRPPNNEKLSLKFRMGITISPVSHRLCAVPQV

CYP3A4 [3] = target: T2, CYP3A4; assay: CYP3A4 P450-Glo luciferase assay (unselective control)
[4] = tested on: lamina II neurons of spinal cord slices; assay: sEPSC recordings in lamina II neurons of spinal cord slices; type: cell-based
Experimental: (d) Frequency of sEPSCs. […] (E) Amplitude of sEPSCs. […] To confirm the effect of TRPV1 sensitization by 9,10-EpOME with electrophysiological means, the inventors measured sEPSCs from lamina II neurons of spinal cord slices using two capsaicin stimulations [1 μM] and incubating the cells prior to the second capsaicin stimulus with 9,10-EpOME [1 μM] (FIG. 3C). […] In combination with capsaicin, however, the sEPSC frequency was strongly potentiated (FIG. 3D). However, no difference in the amplitude of sEPSCs could be observed with either 9,10-EpOME, […] or the combination of both substances (FIG. 3E).

[5] = intraplantar injection in hind paws

T2 sequence (P08684 whole entry): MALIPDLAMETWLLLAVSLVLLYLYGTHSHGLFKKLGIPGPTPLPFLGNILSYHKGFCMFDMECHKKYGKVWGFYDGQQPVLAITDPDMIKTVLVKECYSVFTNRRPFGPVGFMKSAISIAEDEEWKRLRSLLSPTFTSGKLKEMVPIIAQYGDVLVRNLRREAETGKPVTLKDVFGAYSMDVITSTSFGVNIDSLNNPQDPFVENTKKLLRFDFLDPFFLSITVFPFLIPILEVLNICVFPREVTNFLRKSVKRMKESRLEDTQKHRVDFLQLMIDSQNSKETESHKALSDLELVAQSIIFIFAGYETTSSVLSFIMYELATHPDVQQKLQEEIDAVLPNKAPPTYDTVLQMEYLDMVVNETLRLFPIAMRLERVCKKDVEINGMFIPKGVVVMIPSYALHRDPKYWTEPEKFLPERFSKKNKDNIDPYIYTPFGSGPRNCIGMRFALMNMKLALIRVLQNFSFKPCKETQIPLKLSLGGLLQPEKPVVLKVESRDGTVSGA
Sequence of TRPV1 (Q704Y3 whole entry): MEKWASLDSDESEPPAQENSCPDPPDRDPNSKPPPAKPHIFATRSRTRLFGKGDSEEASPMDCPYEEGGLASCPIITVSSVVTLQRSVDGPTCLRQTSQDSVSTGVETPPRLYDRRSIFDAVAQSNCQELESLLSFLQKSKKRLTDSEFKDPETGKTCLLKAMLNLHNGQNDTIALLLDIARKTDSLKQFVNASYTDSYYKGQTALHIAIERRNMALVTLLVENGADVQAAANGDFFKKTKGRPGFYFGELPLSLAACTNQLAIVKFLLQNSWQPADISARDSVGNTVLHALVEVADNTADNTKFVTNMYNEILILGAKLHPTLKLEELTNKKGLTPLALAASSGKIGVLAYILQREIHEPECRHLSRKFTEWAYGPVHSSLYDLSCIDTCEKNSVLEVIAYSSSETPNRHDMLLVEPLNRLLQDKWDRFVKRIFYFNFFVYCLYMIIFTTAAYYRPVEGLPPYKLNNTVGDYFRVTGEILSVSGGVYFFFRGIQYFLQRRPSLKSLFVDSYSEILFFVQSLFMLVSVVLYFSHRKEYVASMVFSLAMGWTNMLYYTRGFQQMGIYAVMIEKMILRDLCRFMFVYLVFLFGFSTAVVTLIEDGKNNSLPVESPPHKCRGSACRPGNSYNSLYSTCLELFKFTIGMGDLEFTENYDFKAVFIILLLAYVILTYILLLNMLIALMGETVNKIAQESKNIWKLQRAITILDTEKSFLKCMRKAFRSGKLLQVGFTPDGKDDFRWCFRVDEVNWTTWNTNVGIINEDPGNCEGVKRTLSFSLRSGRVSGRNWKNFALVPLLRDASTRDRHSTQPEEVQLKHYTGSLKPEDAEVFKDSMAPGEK

Compound	inhibition at 30 min, 10 μM (CYP3A4 [2]) [%]	inhibition at 10 µM (CYP2J2) [%]	also measured
CN(C)CCCn1cc(C2=C(c3c[nH]c4ccccc34)C(=O)NC2=O)c2ccccc21	–	–	effect of kinase inhibitor on 9,10-EpOME-evoked TRPV1 sensitization (TRPV1): did not have any effect
CCCCC/C=C\CC1OC1CCCCCCCC(=O)O (stereo not shown) [9,10-EpOME, 9,10-epoxy-12Z-octadecenoic acid]	–	–	duration of significant reduction of mechanical thresholds (wild type BL/6N mice; [5]): 2 h; duration of significant reduction of thermal thresholds (wild type BL/6N mice; [5]): 1 h; duration of decrease of mechanical thresholds (wild type BL/6N mice; intrathecal injection): up to 1.5 h; thermal thresholds (wild type BL/6N mice; intrathecal injection, 30 minutes after i.th. injection): significant but rather weak reduction
CC(C)(C)c1ccc(/C=C/C(=O)Nc2ccc3c(c2)OCCO3)cc1 [AMG 9810]	–	–	block of the second 9,10-EpOME-evoked calcium transient (DRG neurons): could block
Cl.Cl.O=S(=O)(NCCNC/C=C/c1ccc(Br)cc1)c1cccc2cnccc12 [H89 dihydrochloride]	–	–	effect of kinase inhibitor on 9,10-EpOME-evoked TRPV1 sensitization (TRPV1): significant reduction
CC(C)c1ccc(NC(=O)Cn2cnc3c2c(=O)n(C)c(=O)n3C)cc1 [HC-030031]	–	–	block of the second 9,10-EpOME-evoked calcium transient (DRG neurons): but not the TRPA1 antagonist HC-030031 could block
CC(C)(C)c1ccc(C(O)CCCN2CCC(C(O)(c3ccccc3)c3ccccc3)CC2)cc1 (stereo not shown) [Terfenadine]	–	–	duration of increase in mechanical thresholds ([1]; 1 or 2 mg·kg-1 i.v., eight days after paclitaxel): 2 h; difference between the two doses in mechanical thresholds ([1]; 1 versus 2 mg·kg-1 i.v.): no significant differences; mechanical thresholds of paclitaxel treated mice ([1]; terfenadine 1 or 2 mg·kg-1 i.v., loratadine 1 mg kg-1 i.v., eight days after paclitaxel): significant increase; remaining concentrations of all measured epoxylipids in DRGs, spinal dorsal horn and plasma (CYP2J6; 1 mg·kg-1 i.v.): reduced significantly; 9,10-EpOME concentrations in sciatic nerve, DRGs and dorsal spinal cord (CYP2J6; 1 mg·kg-1 i.v., two hours, eight days after paclitaxel): significant reduction; levels of epoxylipids reduced to (CYP2J6; terfenadine treatment): about 50%
C[C@]12CC[C@@H]3c4ccc(O)cc4CC[C@H]3[C@@H]1CC[C@@H]2O [c054, Estradiol]	12.1	84.4	–
CC(COc1ccccc1)N(CCCl)Cc1ccccc1 (stereo not shown) [c089, Phenoxybenzamine•HCl]	–	75	inhibition at 30 min, 10 μM (CYP3A4 [3]): 17.9%
CCC(=O)O[C@]1(C(=O)CCl)[C@@H](C)C[C@H]2[C@@H]3CCC4=CC(=O)C=C[C@]4(C)[C@@]3(F)[C@@H](O)C[C@@]21C [c146, Clobetasol Propionate]	-4.3	78.2	–
CC(C)OC(=O)C(C)(C)Oc1ccc(C(=O)c2ccc(Cl)cc2)cc1 [c246, Fenofibrate]	-26.2	78	–
C#C[C@]1(O)CC[C@H]2[C@@H]3CCC4=CC(=O)CC[C@@H]4[C@H]3CC[C@@]21CC [c314, Levonorgestrel]	5.1	64	–
CC1(C)O[C@@H]2C[C@H]3[C@@H]4CCC5=CC(=O)CC[C@]5(C)[C@@]4(F)[C@@H](O)C[C@]3(C)[C@]2(C(=O)CCl)O1 [c440, Halcinonide]	-18.5	76.8	–
CC(C)/N=c1\cc2n(-c3ccc(Cl)cc3)c3ccccc3nc-2cc1Nc1ccc(Cl)cc1 [c516, Clofazimine]	-82.9	79.1	–
Cc1[nH]cnc1CN1CCc2c(c3ccccc3n2C)C1=O [c595, Alosetron•HCl]	14	81.8	–
Cc1cccc(CN2CCN(C(c3ccccc3)c3ccc(Cl)cc3)CC2)c1 (stereo not shown) [c608, Meclizine Dihydrochloride]	17.4	71.5	–
COc1cc(CNC(=O)CCCC/C=C/C(C)C)ccc1O [capsaicin]	–	–	frequency of sEPSCs, substance alone ([4]; 1 mM as printed in legend, baseline 6.9±0.4 Hz, n=5 neurons): 13.7±0.4 Hz; amplitude of sEPSCs ([4]; n=5 neurons/group): no significant effects
